How the values were obtained:
[1] = test system: exposed rat sciatic nerves; assay: pAKT induction in exposed rat sciatic nerves; assay type: in vivo; conditions: direct injection or bathing, 5 μM
Protocol: Stimulated by these observations, we next tested 1938 in the sciatic nerve crush model in the rat, an in vivo model of peripheral nerve injury and regeneration. […] Immediately after the nerve crush (FIG. 5e, i-ii), 1938 was delivered via a single intraneural injection into the proximal crush site (FIG. 5e, iii) and via a minipump implanted adjacent to the nerve (FIG. 5e, iv), loaded with 1938 solution, for continuous delivery for the duration of the experiment. Analyses were conducted 3 weeks after injury.
Test experiment to assess if 1938 could induce pAkt generation in exposed rat sciatic nerves, adult male Sprague Dawley rats (>250 g; n=2) were anaesthetised using isoflurane, the left leg sciatic nerve was exposed and injected with 2 μl vehicle (sterile dH2O) or 1938 (5 μM in sterile dH2O). Meanwhile the sciatic nerve of the right leg was exposed and bathed in 250 μl of vehicle (sterile dH2O) or 1938 (5 μM in sterile dH2O). Each animal received one vehicle and one compound treatment. The treatments were left on for 30 min prior to washing the bathed nerves with sterile PBS and culling via sodium pentobarbital injection according to local regulations, the animal by schedule 1. Nerves were then harvested, washed in fresh 4° C. PBS and stored in a fresh vial before snap freezing in liquid nitrogen. […]

E545K mutant of p110α = target: T1, E545K mutant of p110α (Homo sapiens, UniProt P42336, E545K); assay: ADP-Glo kinase assay, oncogenic mutant E545K; assay type: biochemical; conditions: mutant insensitive to pY
T1 construct: Full-length p110α was expressed in a complex with full-length p85α (for biochemistry and HDX-MS); 6xHis followed by TEV protease site (N); made in house; host or cells: Spodoptera frugiperda Sf9 (plasmid OP663)
T1 sequence (P42336 whole entry E545K): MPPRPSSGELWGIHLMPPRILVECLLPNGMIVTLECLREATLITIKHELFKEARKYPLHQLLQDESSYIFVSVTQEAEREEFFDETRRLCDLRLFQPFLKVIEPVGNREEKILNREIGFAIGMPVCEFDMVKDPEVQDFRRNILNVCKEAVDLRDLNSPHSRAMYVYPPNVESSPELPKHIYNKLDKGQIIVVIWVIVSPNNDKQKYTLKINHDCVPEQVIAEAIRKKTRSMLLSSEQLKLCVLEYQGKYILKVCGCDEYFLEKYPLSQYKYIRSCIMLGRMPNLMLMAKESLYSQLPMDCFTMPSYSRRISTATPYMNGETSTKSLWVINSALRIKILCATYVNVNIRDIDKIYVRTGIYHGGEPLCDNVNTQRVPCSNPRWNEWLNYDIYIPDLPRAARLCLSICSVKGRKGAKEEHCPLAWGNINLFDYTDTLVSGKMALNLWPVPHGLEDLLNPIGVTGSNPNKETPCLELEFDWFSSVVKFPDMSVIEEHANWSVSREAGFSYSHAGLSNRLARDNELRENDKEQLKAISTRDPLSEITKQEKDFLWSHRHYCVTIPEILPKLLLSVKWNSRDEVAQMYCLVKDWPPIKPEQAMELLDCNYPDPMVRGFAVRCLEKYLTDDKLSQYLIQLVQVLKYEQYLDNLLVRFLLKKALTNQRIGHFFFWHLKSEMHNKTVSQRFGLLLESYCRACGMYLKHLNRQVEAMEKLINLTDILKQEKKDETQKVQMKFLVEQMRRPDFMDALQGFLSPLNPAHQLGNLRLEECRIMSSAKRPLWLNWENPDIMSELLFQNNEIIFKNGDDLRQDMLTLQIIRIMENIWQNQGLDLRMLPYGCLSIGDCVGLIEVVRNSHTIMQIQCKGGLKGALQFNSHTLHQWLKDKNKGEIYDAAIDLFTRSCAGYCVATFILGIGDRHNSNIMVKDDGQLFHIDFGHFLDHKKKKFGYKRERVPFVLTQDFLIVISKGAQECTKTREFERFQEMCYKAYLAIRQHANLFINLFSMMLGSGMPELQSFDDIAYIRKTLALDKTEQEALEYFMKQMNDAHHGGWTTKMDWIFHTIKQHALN
T1 sequence (P27986 whole entry partner): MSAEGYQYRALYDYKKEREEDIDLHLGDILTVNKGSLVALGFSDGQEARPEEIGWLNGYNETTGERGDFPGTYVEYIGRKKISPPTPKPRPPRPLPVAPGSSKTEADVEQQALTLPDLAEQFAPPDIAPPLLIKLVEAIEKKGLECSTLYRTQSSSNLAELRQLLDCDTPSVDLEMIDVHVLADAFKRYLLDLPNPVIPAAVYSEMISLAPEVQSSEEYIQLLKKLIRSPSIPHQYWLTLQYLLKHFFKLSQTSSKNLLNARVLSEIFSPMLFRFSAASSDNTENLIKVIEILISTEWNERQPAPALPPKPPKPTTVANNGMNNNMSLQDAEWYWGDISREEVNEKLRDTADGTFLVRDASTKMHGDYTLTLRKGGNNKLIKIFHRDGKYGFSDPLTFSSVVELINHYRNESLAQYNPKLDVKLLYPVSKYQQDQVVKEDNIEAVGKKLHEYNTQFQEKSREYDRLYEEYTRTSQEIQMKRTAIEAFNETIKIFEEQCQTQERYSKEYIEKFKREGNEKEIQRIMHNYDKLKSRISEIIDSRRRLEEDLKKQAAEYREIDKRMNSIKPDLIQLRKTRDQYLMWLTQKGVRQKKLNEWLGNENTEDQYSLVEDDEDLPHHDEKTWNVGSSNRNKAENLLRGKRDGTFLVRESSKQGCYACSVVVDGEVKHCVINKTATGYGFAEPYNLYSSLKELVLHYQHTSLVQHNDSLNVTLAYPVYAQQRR
Protocol: Co-stimulation of 1938 with pY led to an additive activatory effect for G106V, but not for the N345K and E545K mutants (FIG. 1f/FIG. 22f).
Kinase reactions were performed with ADP-Glo kinase assay kit (Promega Corporation). The enzyme, substrate and compounds were diluted in reaction buffer (20 mM HEPES, 50 mM NaCl, 50 mM KCl, 3 mM MgCl2, 1 mM EGTA, 1 mM TCEP, pH 7.4). Final concentrations of PI3Kα and PI3Kδ used were 25 nM and 50 nM for PI3Kβ. Liposomes (5% brain PI(4,5)P2, 20% brain phosphatidylserine, 45% brain phosphatidylethanolamine, 15% brain phosphatidylcholine, 10% cholesterol, 5% sphingomyelin (Avanti Polar Lipids)) were used at a final concentration of 1 mg/ml. The pY sequence is ESDGG(pY)[…](pY)[…].
For characterisation of the effects of 1938 on in vitro PI3K enzymology, all reactions were performed at room temperature with 384 white-polystyrene plates (Corning #3574). The final DMSO concentration in the assay was between 0.5%-1.8%. The reaction mixture contained 2 μl PI3K enzyme, 2 μl compound and/or pY and 2 μl of liposome substrate mixed with ATP. ATP was used at a final concentration of 200 μM, unless otherwise stated. The enzyme and compounds were pre-incubated for 10 min prior to addition of substrate. […] For enzyme kinetic calculations, data was expressed as velocity (pmol of ADP generated/sec). […]

[2] = target: T2, mTORC1 (mTOR/RAPTOR/LST8 complex) (Homo sapiens, UniProt P42345); assay: mTORC1 kinase assay (Phos-tag gel); assay type: biochemical; conditions: 200 μM 1938
T2 construct: made in house
Protocol: 133 protein kinases and 7 lipid kinases were counterscreened, with […] used at 1 μM, using the Adapta, Lantha and Z-LYTE assays (SelectScreen Kinase Profiling Service; Thermofisher—experimental details of these assays can be found here: https://www.thermofisher.com/uk/en/home/industrial/pharma-biopharma/drug-discovery-development/target-and-lead-identification-and-validation/kinasebiology/kinase-activity-assays.html. The tree representation in KinMap generated courtesy of Cell Signaling Technology, Inc. (www.cellsignal.com). mTORC1 (mTOR/RAPTOR/LST8) protein complex and ATM kinase and substrates were produced as previously described (Anandapadamanaban, M. et al. Science (New York, NY 366, 203-210 (2019); Baretic, D. et al. Sci Adv 3, e1700933 (2017). Screening of 1938 was conducted using SuperSep Phos-Tag 50 μmol/l 100×100×6.6 mm 17-well (192-18001/199-18011) gels. For ATM assays, 100 nM ATM was incubated for 30 min at 30° C. with 5 μM GST-p53 and 1 mM ATP, in the absence or presence of 200 μM 1938 in ATM Kinase Buffer (50 mM HEPES pH 7.5, 100 mM NaCl, 10% glycerol, 2 mM […], 5 mM MgCl2). […] Gels were then stained using InstantBlue™ Coomassie stain, and then quantified using BioRad Image Lab Software. […]

With `CCN1CCN(c2ccc(Nc3cc(Nc4cccc5c4N(C(C)=O)CC5)ccn3)cc2)CC1` [Example 1938] the “pAKT in sciatic nerve” value [1] was “induction of pAKT”, the “activation of E545K mutant” value (E545K mutant of p110α) was “further activated” and the “activity of mTORC1” value [2] was “did not affect”.
